Measurements reported in patent publication US20230372282A1, “METHOD FOR TREATEING OR […] OPTIC NEUROPATHY” (TZU CHI UNIVERSITY, priority 2022, published 2023).

What was measured:
RGC layer = assay: TUNEL assay of apoptotic cells in the RGC layer; type: in vivo, rat; conditions: rAION rats, BP 10 mg/kg i.p. 7 days; PBS group 11.2±2.8, sham 2.8±1.9
Procedure: (§1) Adult male Wistar rats of 4 to 6 weeks of age (weighing 100-125 g) were used in the animal model of ischemic optic neuropathy and were divided into three groups: the sham group, the group administered with PBS following ischemic optic neuropathy injury, and the group with ischemic optic neuropathy injury accompanied by intraperitoneal injection of BP at 10 mg/kg for 7 consecutive days. The rats were housed in an animal room having a 12-hour light/dark cycle (the light cycle time is from 7 a.m. to 7 p.m.) with temperature controlled at 23° C. and humidity controlled at 55%, and supplied with filtered sterilized water and general rodent feed. During the experiment, general anesthesia of rats was performed by intramuscular injection of ketamine at 100 mg/kg and xylazine at 10 mg/kg. Local anesthesia was performed by using 0.5% Alcaine, and mydriasis was performed by administering Mydrin-P. To sacrifice the rats, carbon dioxide at a filling rate of 5 L/min was injected so that the volume of carbon dioxide was 20% of that of the cage, thereby achieving the main goal of reducing animal suffering. […]
Apoptotic cells in the ganglion cell layer (GCL) were detected using TUNEL assay according to the manufacturer's protocol. TUNEL-positive cells were calculated manually based on at least 6 retinal sections per eyeball in three groups (n=6 for each group). […]

rAION model [1] = assay: Optical coherence tomography (OCT) imaging of optic nerve width and RNFL after AION induction; type: in vivo, rat; conditions: BP 10 mg/kg i.p.
Procedure: (§2) Adult male Wistar rats of 4 to 6 weeks of age (weighing 100-125 g) were used in the animal model of ischemic optic neuropathy and were divided into three groups: the sham group, the group administered with PBS following ischemic optic neuropathy injury, and the group with ischemic optic neuropathy injury accompanied by intraperitoneal injection of BP at 10 mg/kg for 7 consecutive days. The rats were housed in an animal room having a 12-hour light/dark cycle (the light cycle time is from 7 a.m. to 7 p.m.) with temperature controlled at 23° C. and humidity controlled at 55%, and supplied with filtered sterilized water and general rodent feed. During the experiment, general anesthesia of rats was performed by intramuscular injection of ketamine at 100 mg/kg and xylazine at 10 mg/kg. Local anesthesia was performed by using 0.5% Alcaine, and mydriasis was performed by administering Mydrin-P. To sacrifice the rats, carbon dioxide at a filling rate of 5 L/min was injected so that the volume of carbon dioxide was 20% of that of the cage, thereby achieving the main goal of reducing animal suffering.
(§3) Firstly, under local anesthesia, rats were administrated with Alcaine and Mydrin-P eye drops to induce mydriasis. Subsequently, the rats were intravenously injected with rose bengal (2.5 mM dissolved in PBS at pH 7.4) at 1 mL/kg, and immediately irradiated with 12 pulses (once per second) of argon green laser (wavelength: 532 nm, size: […], power: 80 mW) to excite various parts of the optic disc. In addition, the laser was focused on the optic disc by an ophthalmoscope. Then, Tobradex eye ointment was applied evenly to the rats' eyes. Finally, the physical health of the rats was taken care of daily until the end of the study.
On days 1, 3, 7, 14, and 28 after AION induction, the optic nerve width (ONW) and the coherence tomography image of the retinal nerve fiber layer (RNFL) were obtained using a Micron IV retinal microscope. The vertical resolution and horizontal resolution of the imaging system were set to be 1.8 μm and 3 μm, respectively, to provide a 3.2 mm field of view and 1.2 mm depth of field for the retina. The cornea was moistened with Methocel 2%. The Micron eyepiece was glued to be in direct contact with the eye. To allow vertical light penetration through the cornea, the retinal nerve fiber layer and the Bruch's membrane opening (ONW) were imaged with circular and linear scans, respectively, with an average of 50 frames per scan.
The optic nerve width (ONW) and retinal nerve fiber layer (RNFL) thickness were measured on days 1, 3, 7, 14, and 28 using optical coherence tomography (OCT) imaging in the sham group, PBS-treated group, and BP-treated group. As shown in FIG. 5A and FIG. 5B, after AION induction, optic disc swelling can clearly observed in the acute onset stage, and it was improved by administration of BP on days 3, 7 and 28 (311.95±23.21 μm vs. 469.58±29.35 μm, 259.35±33.73 μm vs. 329±25.73 μm, 273.71±23.22 μm vs. 300.73±26.41 μm, respectively). Compared with the PBS-treated group, BP was efficient in maintaining the area of the RNFL (0.089±0.0027 mm^2 vs. 0.08±0.0028 mm^2, 0.074±0.0089 mm^2 vs. 0.047±0.0042 mm^2 respectively) on days 14 and 28.

ED1+ macrophages = assay: Immunohistochemistry of ED1+ macrophage infiltration in the optic nerve; type: in vivo, rat; conditions: rAION rats, BP 10 mg/kg i.p. 7 days; PBS group 166.4±19.3, sham 8.7±4.8
Procedure: as §1, with “mg/kg.” for “mg/kg. Local anesthesia was performed by using 0.5% Alcaine, and mydriasis was performed by administering Mydrin-P. To sacrifice the rats, carbon dioxide at a filling rate of 5 L/min was injected so that the volume of carbon dioxide was 20% of that of the cage, thereby achieving the main goal of reducing animal suffering.”
(§4) First, vertical-sections of the ON were blocked with 2% bovine serum albumin (BSA) containing 0.3% triton X-100 for 1 hour. […] Fluorescence photographs of the sections of the ON tissue were taken at 10× magnification and 20× magnification using the Zeiss LSM 900 confocal system. The 20× magnified image of ED1^+ cells was analyzed using ImageJ software for quantification of exogenous macrophages. […]

[2] = test system: retinal ganglion cells (RGCs); assay: Retrograde labeling of RGCs with FluoroGold: RGC density and survival after AION induction; type: in vivo, rat
Procedure: as §2, §3
Retrograde labeling was performed three weeks after the rats were AION induced. […] One week after labeling, the rats were sacrificed and the eyeballs were carefully removed from the […] and fixed in 10% formalin for 2 hours. The entire retina was placed flat on a slide and paired with a filter set (excitation filter: 350-400 nm; radiation filter: 515 nm) and observed for morphology under a fluorescence microscope. The region with a radius of 1 mm from the center of the retina is defined as the central region, and the region with a radius of 3 mm from the center is defined as the mid-peripheral region. Ten blocks (38,250 μm^2; 225 μm×170 μm) were randomly selected from the central region and the mid-peripheral region to estimate the density of RGCs to determine the survival rate of RGCs.
To investigate the effect of BP on RGC survival rates after AION induction, retrograde labeling was carried out using Fluorogold (FG). […]

rAION model [3] = assay: Flash visual evoked potential (FVEP), P1-N2 amplitude after AION induction; type: in vivo, rat; conditions: 28 days after AION induction, BP 10 mg/kg i.p. 7 days; PBS group 13.70±5.59, sham 33.63±8.30
Procedure: as §1, with “mg/kg.” for “mg/kg. Local anesthesia was performed by using 0.5% Alcaine, and mydriasis was performed by administering Mydrin-P. To sacrifice the rats, carbon dioxide at a filling rate of 5 L/min was injected so that the volume of carbon dioxide was 20% of that of the cage, thereby achieving the main goal of reducing animal suffering.”
Twenty-eight days after AION induction, electrodes were implanted into the primary visual cortex (anteroposterior: −8 mm; dorsoventral: ±3 mm) and frontal cortex (anteroposterior: +1 mm), while a ground electrode was implanted in the tail. […] The general visual function was evaluated by P1-N2 amplitude. […]

NF-κB signaling pathway = assay: Western blotting of retinal protein, NF-κB-related pathway; type: in vivo; conditions: rat retina, rAION, compared with AION+PBS group
Procedure: as §2, §3
The detailed process of Western blotting process was described in the inventors' previous articles Cell Death Dis. 2017, 8, e3172 and Nat. Med. 2015, 21, 677-687. The total protein of the rat retina was extracted with modified radio immunoprecipitation assay (RIPA) buffer, and the protein concentrations were analyzed using the bicinchoninic acid (BCA) protein assay kit. […] The protein signal on the membrane was detected using an enhanced chemiluminescence (ECL) kit. The signal strength of the bands was quantified using ImageJ software.
Previous studies have pointed out that the upregulation of reactive oxygen species (ROS) in ischemic injury induces inflammatory response through the IκBα-NF-κB signaling pathway. Here, protein expression of the NF-κB-related pathway was evaluated to investigate the molecular mechanisms involved in the protection of nerves by administration of BP. […]

CNPase = assay: Immunohistochemistry of CNPase in the optic nerve (myelin integrity); type: in vivo, rat; conditions: rAION rats, BP 10 mg/kg i.p. 7 days; after AION induction 4.24±0.71, sham 11.06±2.60
Procedure: as §1, with “mg/kg.” for “mg/kg. Local anesthesia was performed by using 0.5% Alcaine, and mydriasis was performed by administering Mydrin-P. To sacrifice the rats, carbon dioxide at a filling rate of 5 L/min was injected so that the volume of carbon dioxide was 20% of that of the cage, thereby achieving the main goal of reducing animal suffering.”
as §4

[4] = rodent model of NAION, BP 10 mg/kg i.p. 7 days

CCC/C=C1\OC(=O)c2ccccc21 [BP, n-butylidenephthalide]
TUNEL-positive cells in the RGC layer per high powered field (HPF) (RGC layer): 3.7±1.5 | optic nerve width (ONW) (rAION model [1]; day 3 after AION induction, vs. 469.58±29.35 PBS group): 311.95±23.21 μm | optic nerve width (ONW) (rAION model [1]; day 7 after AION induction, vs. 329±25.73 PBS group): 259.35±33.73 μm | area of the RNFL (rAION model [1]; day 14 after AION induction, vs. 0.08±0.0028 PBS group): 0.089±0.0027 mm^2 | area of the RNFL (rAION model [1]; day 28 after AION induction, vs. 0.047±0.0042 PBS group): 0.074±0.0089 mm^2 | optic nerve width (ONW) (rAION model [1]; day 28 after AION induction, vs. 300.73±26.41 PBS group): 273.71±23.22 μm | ED1-positive cells in the optic nerve per high powered field (ED1+ macrophages): 80.1±28.9 | density of RGCs in the central retina ([2]; rAION Wistar rats, BP 10 mg/kg intraperitoneal for 7 consecutive days, FluoroGold labeling 3 weeks after induction, sacrifice 1 week later, PBS group 935±514, sham 2771±453): 2172±458 RGCs per mm^2 | density of RGCs in the mid-peripheral retina ([2]; rAION Wistar rats, BP 10 mg/kg intraperitoneal for 7 consecutive days, PBS group 750±452, sham 2236±487): 1962±505 RGCs per mm^2 | improvement of RGC survival rate in the central retina [2, 4]: 44.7% | improvement of RGC survival rate in the mid-peripheral retina [2, 4]: 54.2% | FVEP P1 to N2 amplitude (rAION model [3]): 22.01±7.03 μV | expression of IL-1β (NF-κB signaling pathway): reduced expression | expression of NLRP3 (NF-κB signaling pathway): reduced expression | phosphorylation of IκBα (phospho-IκBα expression level) (NF-κB signaling pathway): significantly inhibited phosphorylation | phosphorylation of NF-κB (phospho-NF-κB expression level) (NF-κB signaling pathway): significantly inhibited phosphorylation | expression of CNPase in the optic nerve (IHC signal) (CNPase): 7.20±1.22
